In PubChem BioAssay (NCI):
Values joined by “and” are separate entries in the source; they are usually repeats but may differ in a detail not shown here. Equal entries are not always repeated.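 How tested: cells in 96-well plates exposed to compound for 48 hours at five concentrations. GI50 is the concentration that inhibits growth by half. TGI: total growth inhibition.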

Tests used:
Assay in all cases: NCI-60 cell line screen, 48 h
MCF7 breast = system: MCF7 breast
NCI/ADR-RES ovarian = system: NCI/ADR-RES ovarian
BT-549 breast = system: BT-549 breast
MDA-MB-231 breast = system: MDA-MB-231 breast
MDA-N = system: MDA-N
M19-MEL melanoma = system: M19-MEL melanoma
LXFL 529 NSCLC = system: LXFL 529 NSCLC
HOP-18 NSCLC = system: HOP-18 NSCLC

Row | Structure (SMILES) | GI50 (MCF7 breast) | TGI (MCF7 breast) | GI50 (NCI/ADR-RES ovarian) | TGI (NCI/ADR-RES ovarian) | GI50 (BT-549 breast) | TGI (BT-549 breast) | GI50 (MDA-MB-231 breast) | TGI (MDA-MB-231 breast) | TGI (MDA-N) | TGI (M19-MEL melanoma) | TGI (LXFL 529 NSCLC) | TGI (HOP-18 NSCLC) | GI50 (MDA-N)
1 | Oc1cc(Cl)ccc1Oc1ccc(Cl)cc1Cl | 3.14 µM | 10.6 µM | 2.81 µM | 7.93 µM | 2.62 µM | 5.95 µM | 2.16 µM | 4.95 µM | – | – | – | – | –
2 | COC(=O)[C@@H]1CCCN1C(=O)[C@@H]1CCCN1C(=O)[C@@H](Cc1c[nH]c2ccccc12)NC(=S)Nc1cc(C(F)(F)F)cc(C(F)(F)F)c1 | 2.61 µM | > 100 µM | > 100 µM | > 100 µM | 4.75 µM | 28.6 µM | 3.01 µM | 10.8 µM | – | – | – | – | –
3 | CC(C)(Br)C(=O)/C=C/c1ccccc1 | – | 15.3 µM | – | > 75.5 µM | – | 3.76 µM | – | > 69.8 µM | 21.4 µM | – | – | – | –
4 | O=C(Nc1cc(Cl)c(Cl)cc1Cl)C(=O)C(C(=O)c1ccc(Cl)c(Cl)c1)C1OC(=O)c2ccccc21 (configuration not stated) | – | – | – | – | – | – | – | – | – | 37.9 µM | 22.9 µM | – | –
5 | Cc1ccc2c(c1)ncn2-c1ncnc2c1CC(C)c1ccccc1N2C (configuration not stated) | 0.0368 µM | 12.5 µM | 0.058 µM | 30.4 µM | 0.314 µM | 8.25 µM | 0.192 µM | 16.6 µM | – | – | – | – | –
6 | O=C(Nc1ccc2c(c1)oc(=O)c1ccccc12)C(Cl)Cl | – | > 100 µM | – | > 100 µM | – | > 100 µM | – | > 100 µM | > 100 µM | – | – | – | –
7 | Cc1c(C)c2ccc(OC/C=C3\CCC(=O)O3)cc2oc1=O | 11 µM | 32.5 µM | 16.9 µM | 35.7 µM | 15.2 µM | 28.9 µM | 16 µM | 30 µM | – | – | – | – | –
8 | Nc1nc(Nc2cccc(F)c2)nc2ccccc12 | 15.6 µM | > 100 µM | 26.7 µM | 94.3 µM | 30.2 µM | > 100 µM | 13.8 µM | 34.2 µM | – | – | – | – | –
9 | O=c1oc2ccc(Cl)cc2c(=O)n1-c1ccc(I)cc1F | 0.258 µM | > 23.9 µM | 0.3 µM | 2.87 µM | 0.168 µM | 1 µM | 0.25 µM | 3.57 µM | – | – | – | – | –
10 | C=C(C)CCC(C)N1CCC(N2CCC(C(=O)NCCc3ccccc3)CC2)CC1 (configuration not stated) | 19.6 µM | > 100 µM | 37.4 µM | > 100 µM | 12.1 µM | > 100 µM | 29.9 µM | > 100 µM | – | – | – | – | –
11 | CCN1C(=O)N(CC)C2C1NN=c1s/c(=C3\C(=O)N(C)c4ccccc43)c(=O)n12 (configuration not stated) | 0.373 µM | 31.2 µM | 0.729 µM | 38.7 µM | 1.39 µM | 37.9 µM | 1.99 µM | 34.6 µM | – | – | – | – | –
12 | C[C@H](CS(C)(=O)=O)Nc1ncc2cc(Oc3ccc(F)cc3F)c(=O)n(C)c2n1 | > 25 µM | > 25 µM | > 25 µM | > 25 µM | > 25 µM | > 25 µM | > 25 µM | > 25 µM | – | – | – | – | –
13 | O=C1CCC2(c3ccccc3)Nc3cc(Cl)ccc3N12 (configuration not stated) | – | – | – | – | – | – | – | – | – | 82.6 µM | > 100 µM | – | –
14 | Cc1cccc(C)c1NC(=O)CCCC(=O)C1CCC/C1=N\NC(=O)C(=O)NN (configuration not stated) | – | – | – | – | – | – | – | – | – | – | > 100 µM | > 100 µM | –
15 | Clc1ccc2nc(Oc3ccccc3)cnc2c1 | > 100 µM | > 100 µM | > 100 µM | > 100 µM | > 100 µM | > 100 µM | > 100 µM | > 100 µM | – | – | – | – | –
16 | Fc1ccc(Nc2nccc(-c3c(-c4ccc(C(F)(F)F)cc4)nn4ncccc34)n2)cc1F | > 20.2 µM | > 25 µM | > 25 µM | > 25 µM | > 25 µM | > 25 µM | > 25 µM | > 25 µM | – | – | – | – | –
17 | Fc1ccc(Nc2nc(NCCNc3ccnc4cc(Cl)ccc34)nc(N3CCOCC3)n2)cc1 | 3.43 µM | 14.7 µM | 9.36 µM | 26.5 µM | 8.67 µM | 22 µM | 3.05 µM | 11.1 µM | – | – | – | – | –
18 | O=[N+]([O-])c1ccc(CS(=O)Cc2ccccc2)cc1 (configuration not stated) | – | > 100 µM | – | > 100 µM | – | > 100 µM | – | > 100 µM | > 100 µM | – | – | – | –
19 | Cc1c2ccncc2c(C)c2c1[nH]c1ccc(OC(C)(C)C)cc12 | – | – | – | – | – | – | – | – | – | 5.54 µM | 5.5 µM | – | –
20 | S=c1ssc(Sc2ccccn2)c1Cl | – | – | 13.9 µM | 26.8 µM | – | – | 12 µM | 24.4 µM | – | – | – | – | –
21 | O=c1[nH]cnc2c(C3OC(CO)C(O)C3O)scc12 (configuration not stated) | 50.1 µM | > 100 µM | 44.5 µM | > 100 µM | > 100 µM | > 100 µM | 37.5 µM | > 100 µM | – | – | – | – | –
22 | CCc1c[nH]c2ncnc(N3CC[C@@](N)(CNC(=O)c4ccc(F)cc4F)C3)c12 | 26.6 µM | > 100 µM | 83.9 µM | > 100 µM | 17 µM | 55.3 µM | 35.6 µM | > 100 µM | – | – | – | – | –
23 | CCc1c2c(nc3cccc(N)c13)-c1cc3c(c(=O)n1C2)COC(=O)[C@]3(O)CC | < 0.001 µM | 0.0101 µM | 0.0164 µM | > 100 µM | 0.00656 µM | 0.0218 µM | 0.053 µM | > 100 µM | > 100 µM | – | – | – | 0.0915 µM and 0.704 µM
24 | COc1cc2cc(Oc3ccc(NC(=O)c4ccc(Cl)c(C(F)(F)F)c4)cc3)c(C)nc2cc1OC | 8.95 µM | > 100 µM | 4.21 µM | > 100 µM | 8.86 µM | 70.2 µM | 11.4 µM | 27.5 µM | – | – | – | – | –
25 | COc1cc(Oc2c(O)c(C)c(OC)c(C(C)=O)c2O)c(C(C)=O)c(O)c1C | – | – | – | – | – | – | – | – | – | > 100 µM | > 100 µM | – | –
26 | COc1ccc(COCC(Cn2ccnc2)OCc2ccc(C(=O)O)cc2)cc1 (configuration not stated) | – | – | – | – | – | – | – | – | – | > 100 µM | > 100 µM | – | –
27 | CCOC(=O)c1cnn(-c2ccnc3c(C(F)(F)F)cccc23)c1N | > 100 µM | > 100 µM | > 100 µM | > 100 µM | 70.7 µM | > 100 µM | > 100 µM | > 100 µM | – | – | – | – | –
28 | Cc1cn2c(/C=N/N/C(N)=N\N)c(-c3ccc(Cl)c([N+](=O)[O-])c3)nc2s1 | 1.56 µM | > 50 µM | 15.7 µM | 46.8 µM | 1.12 µM | 2.36 µM | 0.791 µM | 1.87 µM | – | – | – | – | –
